Assay [1] is described as follows: Antihypoxic activity in vivo (time until first gasps). Details: species or system mice (Swiss CD 1). As to conditions: 30 minutes before hypoxia, control 36 ± 4. As to the method: Male mice (Swiss CD 1 ) weighing from 25 to 30 g are, before any experiment, housed for one week under conditions customary for animals (20°-22° C., 55% humidity, light/darkness cycle 12/12, commercial feed and water as desired). The mice are placed in a box (7×5×5 cm) in which an atmosphere poor in oxygen is created by passing through a stream of air (96% N2, 4% O2, 12 l/min). The time taken until the first signs of suffocation (or "gasps") occur is measured. The mice receive a dose of the compounds to be tested by the intraperitoneal route 30 minutes before the hypoxia is induced. Vincamine is used as the reference drug.

Assay [2] deals with Human red blood corpuscles. The experiment in a line: Measurement of haemolysis induced by AAPH. The format is cell-based. As to conditions: Erythrocyte, 0.5 h, 10^-5 M, 30 minutes at 37° C. The protocol:
Measurement of haemolysis induced by AAPH
Human red blood corpuscles are placed for a period of 30 minutes at 37° C. in the presence of AAPH, which generates free radicals at a constant rate, and in the presence or absence of the compounds being studied. The optical density of the supernatant is measured at 403 nm compared with the control without AAPH. The percentage inhibition of haemolysis is calculated by comparison with the 100% haemolysis obtained for the AAPH control.

A further assay deals with thoracic aorta of rats. Description: Anticalcic activity (contraction induced by potassium chloride). More on the design: species or system male Wistar rats. The conditions noted are these: Rattus norvegicus; 60 mM KCl; 2 preparations, 8 concentrations; read-out: IC50, inhibition of thoracic aorta contraction induced by potassium chloride. The protocol:
The anticalcic activity was studied in the thoracic aorta of male Wistar rats. Once they have been introduced into experimental vessels containing a physiological solution, the vascular rings are subjected to an initial tension of 2 g. The preparations are then placed in the presence of a hyperpotassic solution (60 mM of potassium chloride) in order to obtain a sustained contractile response. Increasing concentrations of the product being tested are then added for the period necessary to obtain a stable effect.
Each compound of the invention is thus tested in 2 preparations at 8 concentrations (10^-8 M to 3×10^-5 M) to obtain a concentration-effect curve and determine the IC50.

The next assay has as its system native human LDLs. The experiment in a line: Protective activity against LDL oxidation (electrophoretic method, FPLC, Cu2+ induced). The assay is classed as biochemical. As to conditions: 10 μM; with Cu++; 24 hours. As to the method:
Study of the protective activity against LDL oxidation (electrophoretic method)
The capacity of the compounds of the invention to decrease the proportions of oxidised LDLs was measured by incubating a preparation comprising native human LDLs, a Cu^2+ free radical generator, and the compounds to be tested for 24 hours. The oxidation products are determined by FPLC (Fast Protein Liquid Chromatography) in accordance with the method described by B. Vedie et al., Journal of Lipid Research, 32, 1359-1369, (1991). By that method it was possible to identify 5 peaks corresponding to different degrees of LDL oxidation. Peaks A and B correspond to the native forms of LDL and peaks C, D and E correspond to the different states of oxidation of the LDLs (peak E corresponding to the most oxidised form). The results are expressed as a percentage of the LDLs corresponding to those different states of oxidation.

The test system of the next assay is lipoxygenase. Description: Measurement of lipoxygenase activities (B4 leukotriene release, calcium ionophore A 23 187). The format is cell-based. As to conditions: 10 μM; rabbit granulocytes; average of 3. The protocol: Measurement of lipoxygenase activities The measurements are carried out on rabbit granulocytes. The isolated granulocytes are stimulated in vitro by the calcium ionophore A 23 187. The B4 leukotrienes released in the extracellular medium are measured by Radio Immuno Assay (RIA). The results (average of 3 independent measurements) are expressed as a percentage inhibition compared with the control.

In assay [3] the test system is platelet aggregation (rabbit plasma rich in platelets). The experiment in a line: Measurement of antiaggregation activity (sodium arachidonate induced). The format is cell-based. As to conditions: Oryctolagus cuniculus, sodium arachidonate (50 μ/ml), read-out: Minimum active concentration, inhibition of maximum non-reversible platelet aggregation. As to the method:
Measurement of antiaggregation activity
In that study, the compounds of the invention (100 μ/ml) were tested with the aim of quantifying their ability to inhibit the maximum non-reversible platelet aggregation (rabbit plasma rich in platelets) induced by sodium arachidonate (50 μ/ml). Thus the minimum active concentration for the compound of Example 1 is 20 μM.

A short description of assay [4]: Hypolipaemic activity in hypercholesterolaemic mice. The conditions noted are these: 100 mg/kg p.o.; serum. The assay is classed as in vivo. As to the method: Groups each comprising 6 mice are rendered hypercholesterolaemic by a diet that is high in cholesterol and in cholic acid for 7 days. The compounds of the invention are administered p.o. (100 mg/kg) on the 6th and 7th day (half the dose being administered on day 6 and the other half on day 7). The animals are then left without food and drink for one night. The reduction in the concentration of cholesterol in the serum compared with hypercholesterolaemic control mice is then evaluated, as is also the reduction in concentration of lipoproteins (corresponding to the LDL-VLDL fractions), after precipitation by the addition of heparin to the serum, in the same hypercholesterolaemic mice compared with the control animals.

Another assay relates to 5-HT2 receptors. Description: Serotoninergic activity (competition with [3H]ketanserine). The assay is classed as binding, rat (male Wistar, cerebral cortex membranes). The conditions noted are these: 10 μM (n=3); [3H]ketanserine 0.5 nM, 40 min/25° C. The protocol:
The experiments are carried out on membranes prepared from the cerebral cortex of male Wistar rats (CERJ, le Genest St Isle). The binding measurements are carded out using ketanserine as reference compound. The conditions of the experiment are summarised below:
After incubation, the membranes are quickly filtered. The filtrates are then transferred to flasks containing scintillation liquid and the bound radioactivity is determined by a liquid scintillation counter (LS6000, Beckman). The affinity of the compounds of the invention for the 5-HT2 receptors is evaluated, at the concentration 10 μM (n=3), using competition experiments.

We go through 11 compounds from patent US5420132A, “Substituted benzodioxins” (Adir et Compagnie, priority 1993, dated 1995).

For orientation: inhibition means how much of the control response was suppressed. Usually IC50 stands for the concentration at which inhibition is half-maximal. As to `O=C(C1=COc2cc(O)ccc2O1)N1CCN(C(c2ccc(F)cc2)c2ccc(F)cc2)CC1` [Example 1, 6-HYDROXY-2-{4-[BIS(4-FLUOROPHENYL)METHYL]PIPERAZIN-1-YLCARBONYL}-1,4-BENZODIOXIN], the “Time until the first gasps occur” value in assay [1] (2,5 mg/kg i.p.) was 108 s. This compound also had an inhibition at 10 µM in assay [2] of 62%. The half-maximal inhibitory concentration (IC50) in the assay with thoracic aorta of rats is 0.5 µM. Also, in the assay with native human LDLs, the “LDL form B separated by FPLC (native form), percentage of LDLs” value was 95% and the “LDL oxidised form C separated by FPLC, percentage of LDLs” value is on record as 5%. The “Inhibiting activity (B4 leukotriene release)” value in the assay on lipoxygenase worked out at 62%. In addition, the minimal effective concentration in assay [3] was 20 µM.
Consider `O=C(C1=COc2ccc(O)cc2O1)N1CCN(C(c2ccc(F)cc2)c2ccc(F)cc2)CC1` [Example 2, 7-HYDROXY-2-{4-[BIS(4-FLUOROPHENYL)METHYL]PIPERAZIN-1-YLCARBONYL}-1,4-BENZODIOXIN], for which, in assay [2], the inhibition at 10 µM worked out at 100%.
`Oc1ccc2c(c1)OC=C(CN1CCN(C(c3ccc(F)cc3)c3ccc(F)cc3)CC1)O2` [Example 58, 6-HYDROXY-2-{4-[BIS-(4-FLUOROPHENYL)METHYL]PIPERAZIN-1- YLMETHYL}-1,4-BENZODIOXIN]: the half-inhibitory concentration (IC50) in the assay with thoracic aorta of rats is 0.6 µM. Besides, in assay [4], the “Reduction in the LDL-VLDL fraction” value was 35% and the “Reduction in the total cholesterol” value came out at 33%. Also, the “Inhibiting activity, 5-HT2 receptor binding” value in the assay with 5-HT2 receptors turned out to be 79%.
Regarding `COc1ccc(CN2CCN(C(=O)C3COc4ccc(O)cc4O3)CC2)c(OC)c1OC` (centres unmarked) [Example 17, 7-HYDROXY-2-[4-(2,3,4-TRIMETHOXYBENZYL)PIPERAZIN-1-YLCARBONYL]-2,3-DIHYDRO- 1,4-BENZODIOXIN], testing at 10 µM in assay [2] gave an inhibition of 100%.
`O=C(Nc1ccccc1)C1COc2ccc(O)cc2O1` (centres unmarked) [Example 12, 7-HYDROXY-2-ANILINOCARBONYL-2,3-DIHYDRO-1,4-BENZOP DIOXIN] had an inhibition at 10 µM in assay [2] of 100%.
For `O=C(Nc1ccccc1)C1=COc2cc(O)ccc2O1` [Example 10, 6-HYDROXY-2-ANILINOCARBONYL-1,4-BENZODIOXIN], the “Time until the first gasps occur” value in assay [1] (2,5 mg/kg i.p.) is 97 s. Moreover, the inhibition at 10 µM in assay [2] was found to be 100%.
Regarding `O=C(Nc1ccccc1)C1COc2cc(O)ccc2O1` (centres unmarked) [Example 11, 6-HYDROXY-2-ANILINOCARBONYL-2,3-DIHYDRO-1,4-BENZODIOXIN], at 10 µM the inhibition in assay [2] was 100%.
`CC(C)(Sc1cc(C(C)(C)C)c(O)c(C(C)(C)C)c1)Sc1cc(C(C)(C)C)c(O)c(C(C)(C)C)c1` [probucol, reference compound]: in the assay with native human LDLs, the “LDL oxidised form D separated by FPLC, percentage of LDLs” value is recorded as 80% and the “LDL oxidised form E (most oxidised) separated by FPLC, percentage of LDLs” value came out at 20%.
In turn, `O=C(Nc1ccccc1)C1=COc2ccc(O)cc2O1` [Example 13, 7-HYDROXY-2-ANILINOCARBONYL-1,4-BENZODIOXIN] came in with an inhibition at 10 µM in assay [2] of 100%.
Regarding `CC[C@]12CCCN3CCc4c(n(c5ccccc45)[C@@](O)(C(=O)OC)C1)[C@@H]32` [Vincamine, reference compound], the “Time until the first gasps occur” value in assay [1] (20 mg/kg i.p.) was 147 ± 14 s; in assay [1] (2,5 mg/kg i.p.), “inactive”.
For the compound `O=C(C1COc2cc(O)ccc2O1)N1CCN(C(c2ccc(F)cc2)c2ccc(F)cc2)CC1` (centres unmarked) [Example 3, 6-HYDROXY-2-{4-[BIS(4-FLUOROPHENYL)METHYL]PIPERAZIN -1-YLCARBONYL}-2,3-DIHYDRO-1,4-BENZODIOXIN], in assay [2], the inhibition at 10 µM was 88%.
